# Experimental data from ChEMBL document CHEMBL1153253, “Imidazolinones as nonpeptide angiotensin II receptor antagonists” (Bioorg Med Chem Lett, 1994).
# pIC50: −log10 of the molar value.
# What was measured:
# [1] = molecular target: T1, Type-2 angiotensin II receptor (Homo sapiens, UniProt P50052); test: The compound was tested for the ability to displace 50% of totally specifically bound [125I]- Ang II from Angiotensin II receptor, type 2
# T1 sequence (P50052 whole entry): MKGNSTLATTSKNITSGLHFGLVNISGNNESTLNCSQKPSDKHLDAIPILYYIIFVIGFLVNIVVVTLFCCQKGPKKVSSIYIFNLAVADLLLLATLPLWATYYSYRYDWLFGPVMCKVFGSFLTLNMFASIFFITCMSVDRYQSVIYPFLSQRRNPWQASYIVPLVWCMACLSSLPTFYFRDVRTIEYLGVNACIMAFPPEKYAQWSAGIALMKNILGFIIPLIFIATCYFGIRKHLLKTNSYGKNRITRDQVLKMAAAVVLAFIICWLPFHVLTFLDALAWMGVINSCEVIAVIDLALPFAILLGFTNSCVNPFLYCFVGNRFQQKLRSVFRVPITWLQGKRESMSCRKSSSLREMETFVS
# Rattus norvegicus = test: Effective dose required to lower blood pressure by 30 mm Hg in renal hypertensive rats following intravenous administration; format: functional
# [2] = molecular target: T2, Type-1 angiotensin II receptor A (Rattus norvegicus, UniProt P25095); test: Displacement of [125I]- Ang II from type 1 Angiotensin II receptor
# T2 sequence (P25095 whole entry): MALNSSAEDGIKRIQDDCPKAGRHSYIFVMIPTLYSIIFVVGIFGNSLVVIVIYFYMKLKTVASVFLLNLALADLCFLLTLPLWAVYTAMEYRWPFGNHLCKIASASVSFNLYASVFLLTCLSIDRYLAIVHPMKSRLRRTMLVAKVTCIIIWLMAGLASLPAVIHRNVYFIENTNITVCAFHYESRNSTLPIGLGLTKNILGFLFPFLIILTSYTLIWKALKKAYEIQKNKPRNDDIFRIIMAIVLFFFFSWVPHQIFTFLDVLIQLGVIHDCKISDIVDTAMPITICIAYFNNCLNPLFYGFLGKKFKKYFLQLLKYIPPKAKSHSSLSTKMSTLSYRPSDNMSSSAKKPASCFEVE
# [3] = molecular target: T3, Type-1 angiotensin II receptor (Homo sapiens, UniProt P30556); test: The compound was tested for the ability to displace 50% of totally specifically bound [125I]- Ang II from Angiotensin II receptor, type 1 site
# T3 sequence (P30556 whole entry): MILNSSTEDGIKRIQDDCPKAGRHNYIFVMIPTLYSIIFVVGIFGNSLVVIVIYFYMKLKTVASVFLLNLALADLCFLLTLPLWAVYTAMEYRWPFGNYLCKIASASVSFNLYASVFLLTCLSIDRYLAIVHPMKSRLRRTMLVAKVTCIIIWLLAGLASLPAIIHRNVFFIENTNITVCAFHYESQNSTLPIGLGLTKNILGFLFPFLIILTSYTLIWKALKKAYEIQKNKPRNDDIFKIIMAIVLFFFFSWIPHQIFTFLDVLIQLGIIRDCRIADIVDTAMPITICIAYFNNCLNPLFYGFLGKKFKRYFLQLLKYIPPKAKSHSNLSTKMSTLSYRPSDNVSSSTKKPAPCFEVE
Compound,pIC50 [1],pIC50 [2],pIC50 [3],ED30 (Rattus norvegicus) [mg/kg]
CCCCC1=NC2(CCCC2)C(=O)N1Cc1ccc(-c2ccccc2S(=O)(=O)NC(=O)c2ccccc2)cc1,7.00,9.00,,0.29
CCCC1=NC2(CCCC2)C(=O)N1Cc1ccc(-c2ccccc2S(=O)(=O)NC(=O)c2ccccc2)cc1,6.52,8.05,,0.14
CCCC1=NC(C(F)(F)F)(C(F)(F)F)C(=O)N1Cc1ccc(-c2ccccc2-c2nn[nH]n2)cc1,,7.70,,
CCCC1=NC(c2ccccc2)(c2ccccc2)C(=O)N1Cc1ccc(-c2ccccc2-c2nn[nH]n2)cc1,,6.52,,
CCCC1=NC(C)(C)C(=O)N1Cc1ccc(-c2ccccc2S(=O)(=O)NC(=O)c2ccccc2)cc1,6.70,8.52,,0.17
O=C1N(Cc2ccc(-c3ccccc3-c3nn[nH]n3)cc2)C(c2ccccc2)=NC1(c1ccccc1)c1ccccc1,,5.85,,
CC1=NC(c2ccccc2)(c2ccccc2)C(=O)N1Cc1ccc(-c2ccccc2-c2nnn[nH]2)cc1,,7.00,,
CCCC1=NC2(CCSCC2)C(=O)N1Cc1ccc(-c2ccccc2S(=O)(=O)NC(=O)c2ccccc2)cc1,6.70,9.00,,0.29
CCCCC1=NC2(CCCC2)C(=O)N1Cc1ccc(-c2ccccc2-c2nnn[nH]2)cc1 [IRBESARTAN],,9.05,,0.16

# The next lines start with results.
pIC50 [1],pIC50 [2],pIC50 [3],Compound,ED30 (Rattus norvegicus) [mg/kg]
,,8.70,CCCC1=NC2(CCSCC2)C(=O)N1Cc1ccc(-c2ccccc2-c2nnn[nH]2)cc1,0.26
,8.52,,CCCC1=NC2(CC2)C(=O)N1Cc1ccc(-c2ccccc2-c2nn[nH]n2)cc1,0.54
,8.52,,CCCC1=NC2(CCCCC2)C(=O)N1Cc1ccc(-c2ccccc2-c2nnn[nH]2)cc1,0.25
,8.40,,CCCC1=NC(C)(C)C(=O)N1Cc1ccc(-c2ccccc2-c2nn[nH]n2)cc1,0.36
,9.05,,CCCC1=NC2(CCCC2)C(=O)N1Cc1ccc(-c2ccccc2-c2nnn[nH]2)cc1,0.32
,8.10,,CCCC1=NC2(CCOCC2)C(=O)N1Cc1ccc(-c2ccccc2-c2nn[nH]n2)cc1,0.2
